According to patent US9650616B2, “Methods for increasing grain yield” (University of Florida Research Foundation, Inc., priority 2014, dated 2017):
Numbering of substitutions follows the chain as printed.

Experiments:
[1] = target: T1, maize endosperm AGPase, large subunit variant RGR (Q96R, D161G, A443R; numbering of SEQ ID NO: 20) (Zea mays, UniProt P55241+Q84PF5, A443R/D161G/Q96R); assay: Apparent kinetic constants with 3-PGA, 37° C., RGR; assay type: biochemical; details: read-out: ATP Km
T1 sequence (P55241 46-516 A443R/D161G/Q96R): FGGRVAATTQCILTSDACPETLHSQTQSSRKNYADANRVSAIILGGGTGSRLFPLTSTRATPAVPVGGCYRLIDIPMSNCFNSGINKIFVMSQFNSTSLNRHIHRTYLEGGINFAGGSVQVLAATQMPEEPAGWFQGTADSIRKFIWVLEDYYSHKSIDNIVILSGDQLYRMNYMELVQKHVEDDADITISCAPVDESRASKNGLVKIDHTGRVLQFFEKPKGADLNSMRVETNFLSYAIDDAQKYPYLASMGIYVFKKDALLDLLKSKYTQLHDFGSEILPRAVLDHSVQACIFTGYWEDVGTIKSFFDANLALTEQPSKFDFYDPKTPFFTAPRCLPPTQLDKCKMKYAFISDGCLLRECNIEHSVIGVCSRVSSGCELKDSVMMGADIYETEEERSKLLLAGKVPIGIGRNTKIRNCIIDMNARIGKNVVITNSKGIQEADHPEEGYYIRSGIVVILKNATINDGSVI
T1 sequence (Q84PF5 1-474): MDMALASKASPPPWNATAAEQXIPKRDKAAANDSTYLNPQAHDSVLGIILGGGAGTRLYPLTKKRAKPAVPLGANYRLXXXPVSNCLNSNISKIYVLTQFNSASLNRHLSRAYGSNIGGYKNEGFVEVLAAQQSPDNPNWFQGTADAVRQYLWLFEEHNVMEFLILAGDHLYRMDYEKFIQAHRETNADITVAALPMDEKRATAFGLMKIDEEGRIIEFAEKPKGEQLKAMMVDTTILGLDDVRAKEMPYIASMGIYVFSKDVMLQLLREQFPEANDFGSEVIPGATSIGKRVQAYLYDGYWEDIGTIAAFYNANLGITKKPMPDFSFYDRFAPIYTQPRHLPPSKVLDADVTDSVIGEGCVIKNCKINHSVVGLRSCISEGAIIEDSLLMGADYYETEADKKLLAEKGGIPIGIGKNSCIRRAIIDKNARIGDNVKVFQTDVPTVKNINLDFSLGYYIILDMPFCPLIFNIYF
Source text: (§1) The small and large subunit plasmids of maize endosperm AGPase (pMONcBt2 and pMONcSh2, respectively) (Giroux et al., 1996) were expressed in E. coli AC70R1-504 cells (Iglesias et al., 1993) as previously described (Boehlein et al., 2008).
(§2) An endpoint assay was used to determine the rate of the AGPase reaction by coupling the formation of PPi to a decrease in NADH concentration (Boehlein et al., 2008). […] The Michaelis constants (Km) were obtained by varying one substrate in the presence of saturating concentrations of the second substrate. The activation constants were obtained by varying the activator at fixed levels of both substrates. All reactions were performed at 37° C. and mixes were prewarmed before starting the reaction with enzyme. […] The absorbance at 340 nm was monitored after 30 min and the amount of PPi produced was determined from a standard curve using PPi in complete reaction mixtures lacking AGPase. Blank samples contained complete reaction mixtures without enzyme and the change in absorbance between the blank and the reaction was used to calculate the amount of PPi produced. […]
(§3) The apparent Michaelis constant and maximum velocity of each reaction was calculated from a V vs. S plots using nonlinear regression analysis and the following equation, v=VmaxS/(Km+S), where v is the measured velocity, Vmax is the maximum velocity, S is the substrate concentration. […]

[2] = target: T2, maize endosperm AGPase, large subunit variant GGR (Q96G, D161G, A443R; numbering of SEQ ID NO: 20) (Zea mays, UniProt P55241+Q84PF5, A443R/D161G/Q96G); assay: Apparent kinetic constants with 3-PGA, 37° C., GGR; assay type: biochemical; details: read-out: ATP Km
T2 sequence (P55241 46-516 A443R/D161G/Q96G): T1 sequence (P55241 46-516 A443R/D161G/Q96R) with R51G
T2 sequence (Q84PF5 1-474): T1 sequence (Q84PF5 1-474)
Source text: as §1, §2, §3

`Nc1ncnc2c1ncn2[C@@H]1O[C@H](COP(=O)(O)OP(=O)(O)OP(=O)(O)O)[C@@H](O)[C@H]1O` [ATP] gave a Km [1] of 62 µM and a Km [2] of 57 µM.
